Assay results published in patent US5424308A, “Condensed pyrazole 3-oxo-propanenitrile derivatives” (Farmitalia Carlo Erba S.r.l., priority 1988, dated 1995).

Assays:
Pseudomonas aeruginosa = Pseudomonas aeruginosa infection in Cyclophosphamide immunosuppressed mice; format: in vivo; details: for % survival: 10 mg/kg/i.p., 8 LD50 intravenously, 10 days after bacterial challenge; for effectiveness against Pseudomonas aeruginosa infection: Cyclophosphamide immunosuppressed mice, in words
Method: The experimental procedure to evaluate this activity is as follows: mice are immunosuppressed 4 days before the bacterial challenge by a single dose of 200 mg/kg of Cyclophosphamide given intraperitoneally. Tested compounds are administered i.p. on days +1 and +3 relative to Cyclophosphamide administration. Clinically isolated Pseudomonas aeruginosa is administered intravenously in amount of 8 LD50. Host resistance to infection is estimated by the number of mice surviving 10 days after the bacterial challenge.

TU-5 tumor cells = assay: Macrophage cytotoxic activity towards TU-5 tumor cells (peritoneal macrophages of i.p. treated mice, MTT); format: cell-based; details: Effector:Target 5:1; 10 mg/kg/i.p.; 7 days before cell collection; 48 hours incubation
Method: The experimental procedure to evaluate this activity is as follows: groups of 4 mice are treated i.p. with the tested compounds and then, seven days later, peritoneal cells are collected and plated for 2 hours at 37° C. After this period the walls are washed to eliminate the non adherent cells, tumor target cells are then added and the incubation prolonged for 48 hours. At the end of this period the target cells viability is evaluated by the MTT colorimetric method (Abstracts of VIII European Immunology Meeting, Zagreb, 1987, pag 94 n°2105) based on the optical density (OD) evaluation at 570 nm.
Percent specific cytotoxicity (%C) is calculated as % inhibition of TU-5 tumor cells (Immunology, 1984, 166, 251) growth using the following formula: [formula]
The following Table I summarizes the immunostimulating activity data of some representative compounds of the invention, obtained according to hereabove experimental procedure, towards TU-5 tumor cells.

SMILES	% survival (Pseudomonas aeruginosa) [%]	effectiveness against Pseudomonas aeruginosa infection (Pseudomonas aeruginosa)	Macrophage cytotoxic activity (% inhibition of TU-5 growth) (TU-5 tumor cells) [%]
N#CC(C(=O)Nc1ccccc1)C(=O)c1nn(-c2ccccc2)c2c1Cc1ccccc1-2 (stereo not drawn) [FCE 25276, 2-cyano-3-(1,4-dihydro-1-phenyl-indeno[1,2-c]pyrazol-3-yl) -3-oxo-N-phenyl-propanamide]	90	strongly effective	93
N#CC(C(=O)Nc1ccc(F)cc1)C(=O)c1nn(-c2ccccc2)c2c1Cc1ccccc1-2 (stereo not drawn) [FCE 25648, 2-cyano-N-(4-fluoro-phenyl)-3-(1,4-dihydro-1-phenyl-indeno[1,2-c]pyrazol-3-yl)-3-oxo-propanamide]	90	strongly effective	77
N#CC(C(=O)Nc1cccc(Cl)c1)C(=O)c1nn(-c2ccccc2)c2c1Cc1ccccc1-2 (stereo not drawn) [FCE 25651, N-(3-chloro-phenyl)-2-cyano-3-(1,4-dihydro-1-phenyl-indeno[1,2-c]pyrazol-3-yl)-3-oxo-propanamide]	90	strongly effective	79
N#CC(C(=O)Nc1ccccc1)C(=O)c1nn(-c2ccccc2)c2c1sc1ccccc12 (stereo not drawn) [FCE 26047, 2-cyano-3-oxo-3-(1-phenyl-1H-benzothieno[3,2-c]pyrazol-3-yl)-N-phenyl-propanamide]	70	strongly effective	82
